Results reported in patent US20250179073A1, “TRICYCLIC HETEROCYCLE COMPOUNDS AS IAP ANTAGONISTS” (Ascentage Pharma (Suzhou) Co., Ltd., priority 2022, published 2025).

Experiments:
EVSA-T cells = assay: Cell proliferation assay (CellTiter-Glo), EVSA-T; format: cell-based; settings: Homo sapiens, EVSA-T, 72 h, 72 h treatment, Celltiter-Glo luminescence
Method in brief: (§1)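 MDA-MB-231 (RPMI-1640/10% FBS) and EVSA-T (MEM/10% FBS) cells, 10000 cells/well, exposed 72 h to compound at […]. Viability read by CellTiter-Glo luminescence after 15 min at room temperature. IC50 from control-normalised curve fitting.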

MDA-MB-231 cells = assay: Cell proliferation assay (CellTiter-Glo), MDA-MB-231; format: cell-based; settings: Homo sapiens, MDA-MB-231, 72 h, 72 h treatment, Celltiter-Glo luminescence
Method in brief: as §1

For `[2H]C([2H])([2H])n1nc2c(Cc3ccc(F)cc3)cc3c(n2c1=O)C(C)(C)CN3C(=O)CN1C[C@@H](C)NC[C@@H]1CN1CCOC[C@H]1C` [Compound 252], the IC50 (EVSA-T cells) was 5.3 nM and the IC50 (MDA-MB-231 cells) was 32 nM.
In the case of `CC(=O)Nc1nc2c(Cc3ccc(F)cc3)cc3c(n2n1)C(C)(C)CN3C(=O)CN1C[C@@H](C)NC[C@@H]1CN1CCOC[C@H]1C` [Example 29, N-(4-(4-fluorobenzyl)-8,8-dimethyl-6-(2-((2R,5R)-5-methyl-2-(((R)-3-methylmorpholino)methyl)piperazin-1-yl)acetyl)-7,8-dihydro-6H-pyrrolo[2,3-e][1,2,4]triazolo[1,5-a]pyridin-2-yl)acetamide], the IC50 (EVSA-T cells) is reported as 10 nM and the IC50 (MDA-MB-231 cells) is reported as 100 nM.
`C[C@@H]1CN(CC(=O)N2CC(C)(C)c3c2cc(Cc2ccc(F)cc2)c2nc(C(N)=O)cn32)[C@@H](CN2CCOC[C@H]2C)CN1` [Example 20, 4-(4-fluorobenzyl)-8,8-dimethyl-6-(2-((2R,5R)-5-methyl-2-(((R)-3-methylmorpholino)methyl)piperazin-1-yl)acetyl)-7,8-dihydro-6H-imidazo[1,2-a]pyrrolo[2,3-e]pyridine-2-carboxamide] showed an IC50 (EVSA-T cells) of 13 nM and an IC50 (MDA-MB-231 cells) of 110 nM.
Compound `C[C@@H]1CN(CC(=O)N2CC(C)(C)c3c2cc(Cc2ccc(F)cc2)c2ncnn32)[C@@H](CN2CCN(CC(F)(F)F)C[C@H]2C)CN1` [Compound 63, 1-(4-(4-fluorobenzyl)-8,8-dimethyl-7,8-dihydro-6H-pyrrolo[2,3-e][1,2,4]triazolo[1,5-a]pyridin-6-yl)-2-((2R,5R)-5-methyl-2-(((R)-2-methyl-4-(2,2,2-trifluoroethyl)piperazin-1-yl)methyl)piperazin-1-yl)ethan-1-one] has an IC50 (EVSA-T cells) of 3 nM and an IC50 (MDA-MB-231 cells) of 28 nM.
In the case of `C[C@@H]1CN(CC(=O)N2CC(C)(C)c3c2cc(Cc2ccc(F)cc2)c2nnc(C#N)n32)[C@@H](CN2CCOC[C@H]2C)CN1` [Compound 153, 4-(4-fluorobenzyl)-8,8-dimethyl-6-(2-((2R,5R)-5-methyl-2-(((R)-3-methylmorpholino)methyl)piperazin-1-yl)acetyl)-7,8-dihydro-6H-pyrrolo[2,3-e][1,2,4]triazolo[4,3-a]pyridine-1-carbonitrile], the IC50 (EVSA-T cells) is reported as 5 nM and the IC50 (MDA-MB-231 cells) is reported as 38 nM.
For `C[C@@H]1CN(CC(=O)N2CC(C)(C)c3c2cc(Cc2ccc(F)cc2)c2nn([C@H]4CCOC4)c(=O)n32)[C@@H](CN2CCOC[C@H]2C)CN1` [Compound 218, 4-(4-fluorobenzyl)-8,8-dimethyl-6-(2-((2R,5R)-5-methyl-2-(((R)-3-methylmorpholino)methyl)piperazin-1-yl)acetyl)-2-((S)-tetrahydrofuran-3-yl)-2,6,7,8-tetrahydro-1H-pyrrolo[2,3-e][1,2,4]triazolo[4,3-a]pyridin-1-one], the IC50 (EVSA-T cells) was 2 nM and the IC50 (MDA-MB-231 cells) was 47 nM.
Compound `C[C@@H]1CN(CC(=O)N2CC(C)(C)c3c2cc(Cc2ccc(F)cc2)c2nn(Cc4ncccc4F)c(=O)n32)[C@@H](CN2CCOC[C@H]2C)CN1` [Compound 220, 4-(4-fluorobenzyl)-2-((3-fluoropyridin-2-yl)methyl)-8,8-di methyl-6-(2-((2R,5R)-5-methyl-2-(((R)-3-methylmorpholino)methyl)piperazin-1-yl)acetyl)-2,6,7,8-tetrahydro-1H-pyrrolo[2,3-e][1,2,4]triazolo[4,3-a]pyridin-1-one] has an IC50 (EVSA-T cells) of 2 nM and an IC50 (MDA-MB-231 cells) of 68 nM.
`C[C@@H]1CN(CC(=O)N2CC(C)(C)c3c2cc(Cc2ccc(F)cc2O)c2ncnn32)[C@@H](CN2CCOC[C@H]2C)CN1` [Compound 42, 1-(4-(4-fluoro-2-hydroxybenzyl)-8,8-dimethyl-7,8-dihydro-6H-pyrrolo[2,3-e][1,2,4]triazolo[1,5-a]pyridin-6-yl)-2-((2R,5R)-5-methyl-2-(((R)-3-methylmorpholino)methyl)piperazin-1-yl)ethan-1-one] showed an IC50 (EVSA-T cells) of 13 nM and an IC50 (MDA-MB-231 cells) of 100 nM.
